Here are results for 2 compounds from PMC6982547 (Leukemia & lymphoma, 2019).

By clearance is commonly meant the rate of elimination divided by the concentration. One may read the AUC as concentration integrated over time. The low end stands for less exposure, the high end for more exposure. By Cmax is commonly meant the peak of the concentration-time curve. As a reminder, the Tmax is the time at which the peak concentration occurs. In general, half-life refers to the time in which the quantity being followed falls by half.

For one series, the system named is follicular lymphoma. The following applies: single agent, two phase 2 studies; cited from earlier work.
In series [1] the test system is patients with relapsed/refractory lymphoid malignancies. The experiment in a line: Phase 1 safety and tolerability: DLTs, MTD/RP2D, adverse events. It is filed as in vivo, human.
For series [2] the following is noted: human, in vivo.
The conditions of series [3]: previously published data; cited from earlier work.
A short description of a further series: clinical. The conditions noted are these: human, in vivo; for AUC: AUC0-tau; for half-life: t½.
The conditions of series [4]: cited from earlier work.
Series [5] can be described thus: Alisertib pharmacokinetics in plasma. It is filed as in vivo, human. The conditions noted are these: Schedule I, vorinostat 200 mg, alisertib 30 mg, day 7, N=1.

Like-named read-outs stand apart in the source and are kept apart here.

As for `O=C(CCCCCCC(=O)Nc1ccccc1)NO` [Vorinostat], the overall response rate in the series on follicular lymphoma is listed as 47-49%. Also, the “MTD of the combination, vorinostat dose” value in series [1] (BID, with 20 mg alisertib BID, intermittent dosing Schedule II) came to 200 mg. The “recommended phase 2 dose (RP2D) of the combination, vorinostat dose” value in series [1] (bid, intermittent schedule) is recorded as 200 mg. In series [2] (30 mg), the t½ is 2.38 (0.97) h. For the same compound, the AUC0-tau in series [2] (200 mg) is given as 1.10 (0.44) μg/mL•h. For the same compound, the clearance in series [3] was 271 L/h. For the same compound, the AUC in the series “clinical” (20 mg) is 1030 ng·h/mL; in the series “clinical” (30 mg), 1850 ng·h/mL; in the series “clinical” (40 mg), 956 ng·h/mL; in the series “clinical” (200 mg), 1030 ng·h/mL. Also, the peak concentration (Cmax) turned out to be 318 ng/mL in “clinical” (20 mg), 560 ng/mL in the series “clinical” (30 mg), 335 ng/mL in “clinical” (40 mg) and 391 ng/mL in the series “clinical” (200 mg). The time of peak concentration (Tmax) amounted to 2.25 h in “clinical” (20 mg), 2.42 h in the series “clinical” (30 mg) and 0.98 h in “clinical” (40 mg). For the same compound, the half-life in the series “clinical” (20 mg) is 2.16 h; in the series “clinical” (40 mg), 2.31 h; in “clinical” (200 mg), 2.19 h; in the series “clinical” it was 2.3 h.
Regarding `COc1cc(Nc2ncc3c(n2)-c2ccc(Cl)cc2C(c2c(F)cccc2OC)=NC3)ccc1C(=O)O` [Alisertib], in series [4] (previous reports), the half-life is given as 14.9 h. Further, the apparent clearance in series [4] (previously published population estimate) is listed as 4.25 L/h. Also, the “MTD of the combination, alisertib dose” value in series [1] (BID, with 200 mg vorinostat BID, intermittent dosing Schedule II) is 20 mg. Further, the “recommended phase 2 dose (RP2D) of the combination, alisertib dose” value in series [1] (bid, intermittent schedule) was 20 mg. The Cl/F in series [5] turned out to be 1.68 L/h.
